Like-named read-outs stand apart in the source and are kept apart here.

One data set deals with IPEC-J2 cells. Type of data set: cell-based, porcine. The following applies: relative to unstimulated IPEC-J2 cells.
For a further data set, the system named is nursery pigs. The following applies: 3 ppm DON in diet, 7 days.

On to lipopolysaccharide [LPS], for which, in the data set on IPEC-J2 cells (LPS 10 ng/mL), the “IL-6 gene expression fold change” value was 0.29 fold, the “IL-8 gene expression fold change” value is 0.88 fold and the “TNF-α gene expression fold change” value was 0.16 fold.

As for `CC1=C[C@H]2O[C@@H]3[C@H](O)C[C@](C)([C@@]2(CO)[C@H](O)C1=O)[C@]31CO1` [DON, deoxynivalenol], in the data set with IPEC-J2 cells (DON 10 ng/mL), the “IL-6 gene expression fold change” value was −0.86 fold and the “IL-8 gene expression fold change” value amounted to 0.56 fold. In the data set on IPEC-J2 cells (LPS/DON), the “TNF-α gene expression fold change” value is “about 5 fold”. Besides, in the data set with nursery pigs (Non-Responders), the ADFI came out at 0.71 kg, the ADG stood at 0.46 kg and the “G:F” value amounted to 0.64. Also, in the data set with nursery pigs (Responders), the ADFI stood at 0.42 kg, the ADG is listed as 0.26 kg and the “G:F” value was 0.61.

Source of the values: US20150306154A1, “STRAINS AND METHODS USEFUL FOR MYCOTOXINS” (DuPont Nutrition Biosciences ApS, priority 2011, published 2015).
